Source: US11541051B2, “Compositions and methods for treating CDK4/6-mediated cancer” (Icahn School of Medicine at Mount Sinai, priority 2016, dated 2023)
“Also recorded” adds a separate entry of the source.

Assays:
Format in all cases: cell-based
CDK4/6 [1] = assay: Western blot of CDK4 and CDK6 in MCF7 breast cancer cells treated with degraders (Example 12, FIG. 10 A); conditions: 1 or 5 μM, 24 h
Procedure: (§1) Breast cancer cell lines (MCF7, T47D, and ZR-75-1) and melanoma cell lines (A375, SK-MEL-2, SK-MEL-30, and WM1382) were cultured in the presence of DMEM or RPMI supplemented with 10% FBS in the presence of penicillin and streptomycin.
(§2) Protein concentrations were determined by BCA from cell lysates and equal amounts of protein are loaded to a Bis-Tris 4-12% gel. Gels were run at 80 V for 4 h using 1× running buffer (25 mM Tris, pH 8.3, […] glycine, 0.1% SDS). Proteins were transferred to a nitrocellulose membrane for 2 h at 100 V using transfer buffer (25 mM Tris, pH 8.3, […] glycine, 20% methanol). Ponceau S staining (0.1% Ponceau S, 1% acetic acid) was used to confirm transfer of proteins to the membrane followed by blocking of the membrane for 30 min at room temperature using blocking buffer (5% dry nonfat milk, 0.1% Tween, 0.02% sodium azide in TBS). The blocked membrane is incubated with primary antibodies (1:1000 dilution) in blocking buffer at 4° C. overnight. When primary phosphor-antibodies were used, then the membrane is incubated with 5% BSA instead of milk. The membrane was washed three times, 10 min each, with wash buffer (0.1% Tween in TBS) followed by incubation with secondary HRP conjugated antibody (1:5000 dilution) in 2.5% dry nonfat milk, 0.1% Tween in TBS for 1 h at room temperature. The membrane was washed three times, 10 min each, with wash buffer (0.1% Tween in TBS). Membranes are incubated with ECL for 1 min and proteins are detected after exposure to a blue autoradiographic film.
(§3) MCF7 breast cancer cells were treated with 1 or 5 μM XY019-095, XY019-098, XY019-0100, XY019-105A, XY019-105B, XY019-106, or XY019-108 for 24 h, then lysed and immunoblotted with antibodies to CDK4, CDK6, and actin (FIG. 10, panel A). […] T47D breast cancer cells were treated with 0.1, 0.3, 1, 3, 10, or 30 μM XY019-106 for 24 h, then lysed and immunoblotted with antibodies to phospho-Rb (pRB), CDK4, and actin (FIG. 10, panel B).

CDK4/6 [2] = target: T1, CDK4/6 (Homo sapiens, UniProt P11802); assay: Western blot of CDK4/6 and phospho-Rb in T47D breast cancer cells treated with degraders (Example 12, FIGS. 10 B, 17, 19); conditions: 24 h
T1 construct: endogenous in cells; host or cells: MCF7, T47D, ZR-75-1 (breast cancer); A375, SK-MEL-2, SK-MEL-30, WM1382 (melanoma)
T1 sequence (P11802 2-303): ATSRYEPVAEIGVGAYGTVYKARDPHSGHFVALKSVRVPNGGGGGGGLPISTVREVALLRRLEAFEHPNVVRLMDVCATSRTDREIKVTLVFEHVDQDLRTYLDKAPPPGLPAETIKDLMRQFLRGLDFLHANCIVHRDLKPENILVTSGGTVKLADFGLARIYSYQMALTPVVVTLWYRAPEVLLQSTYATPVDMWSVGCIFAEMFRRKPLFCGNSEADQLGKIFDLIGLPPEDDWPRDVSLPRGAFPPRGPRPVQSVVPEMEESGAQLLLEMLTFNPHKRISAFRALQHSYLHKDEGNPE
Procedure: as §1, §2, §3
(§4) T47D breast cancer cells (FIG. 17) were treated with 0.3 or 1 μM XY028-140, YX039-48, YX039-123, YX039-56, YX039-124, YX039-65, YX039-147 or YX039-74 for 24 h, then lysed and immunoblotted with antibodies to phospho-Rb (pRb), total Rb, PLK1, cyclin A, CDK4, CDK6, and actin.
(§5) T47D breast cancer cells (FIG. 19) were treated with 0.3 or 1 μM XY028-133, YX044-18, YX044-22, XY028-140, YX044-19 or YX044-38 for 24 h, then lysed and immunoblotted with antibodies to phospho-Rb (pRb), total Rb, PLK1, cyclin A, CDK4, CDK6, and actin.

CDK4/6 [3] = assay: as above; conditions: concentrations as high as 30 μM, 24 h
Procedure: as §1, §2, §3, §4, §5

CDK4/6 [4] = assay: Western blot of CDK4, CDK6 and phospho-Rb in SK-MEL-2 or A375 melanoma cells treated with degraders (Example 12, FIG. 11); conditions: SK-MEL-2 or A375 cells; 1 or 3 μM; 24 h
Procedure: as §1
as §2, with “The membrane was washed three times, 10 min each, with wash buffer (0.1% Tween in TBS) followed by incubation with secondary HRP conjugated antibody (1:5000 dilution) in 2.5% dry nonfat milk, 0.1% Tween in TBS for 1 h at room temperature. The membrane was washed three times, 10 min each, with wash buffer (0.1% Tween in TBS).” left out, “film. […]” for “film.”

CDK4/6 [5] = assay: Western blot of CDK4, CDK6 and phospho-Rb in A375 melanoma cells treated with degraders (Example 12, FIGS. 12, 13, 16, 18); conditions: 24 h
Procedure: as §1, §2
A375 melanoma cells (FIG. 13) were treated with 1 or 3 μM Ribociclib (RB), YX030-126, YX030-108, YX030-107, YX030-086, YX030-085 or XY028-133 for 24 h, then lysed and immunoblotted with antibodies to CDK4, CDK6, cyclin A, PLK1, phospho-Rb (pRb), and actin.
A375 melanoma cells (FIG. 16, panel A) were treated with 0.3 or 1 μM XY028-140, YX039-65, YX039-48, YX039-123, YX039-56, YX039-124 or YX039-147 for 24 h. A375 melanoma cells were treated with 1 or 3 μM XY028-140, YX039-56, YX039-65 or XY028-133 (FIG. 16, panel B). Cells were lysed and immunoblotted with antibodies to phospho-Rb (pRb), total Rb, PLK1, cyclin A, CDK4, CDK6, and actin.
A375 melanoma cells (FIG. 18) were treated with 1 or 3 μM XY028-133, YX044-18, YX044-22, XY028-140, YX044-19 or YX044-38 for 24 h, then lysed and immunoblotted with antibodies to phospho-Rb (pRb), total Rb, PLK1, cyclin A, CDK4, CDK6, and actin.

CDK4/6 [6] = assay: Characterization of CDK4/6 degraders/disruptors in various breast cancer and melanoma cells (summary, Examples 12 and 13)
Procedure: Specific exemplary abemaciclib-, ribociclib-, and palbociclib-based CDK4/6 degraders/disruptors were characterized in various different breast cancer and melanoma cells (Examples 12 and 13, FIGS. 10-23). […] This efficacy in suppressing CDK4/6 expression and CDK4/6 activity correlated with efficacy in inhibiting cancer cell proliferation.
as §2

A375 melanoma cells [7] = assay: Bright field imaging of A375 melanoma cell proliferation (Example 13, FIG. 20); conditions: 1 or 2 μM, 7 days
A375 melanoma cells [8] = assay: Crystal violet staining (clonogenic assay) of A375 melanoma cells (Example 13, FIG. 21); conditions: 0.03-3 μM, 11 days
Procedure: Cells were cultured for 7-11 days in the presence of different compounds. Media with compound was replenished every two days. At the end of the experiment, media was aspirated and viable cells were stained with 0.5% crystal violet dye.

[9] = tested on: V5-tagged CDK4 or V5-tagged CDK6; assay: Western blot of V5-tagged CDK4 or CDK6 ectopically expressed in 293H cells (Example 8); conditions: 1, 3 or 10 μM, 24 h
Procedure: Protein concentrations were determined by BCA from cell lysates and equal amounts of protein are loaded to a Bis-Tris 4-12% gel. Gels were run at 80 V for 4 h using 1× running buffer (25 mM Tris, pH 8.3, 1.92 M glycine, 0.1% SDS). Proteins were transferred to a nitrocellulose membrane for 2 h at 100 V using transfer buffer (25 mM Tris, pH 8.3, 1.92 M glycine, 20% methanol). Ponceau S staining (0.1% Ponceau S, 1% acetic acid) was used to confirm transfer of proteins to the membrane followed by blocking of the membrane for 30 min at room temperature using blocking buffer (5% dry nonfat milk, 0.1% Tween, 0.02% sodium azide in TBS). The blocked membrane is incubated with primary antibodies (1:1000 dilution) in blocking buffer at 4° C. overnight. When primary phosphor-antibodies were used, then the membrane is incubated with 5% BSA instead of milk. The membrane was washed three times, 10 min each, with wash buffer (0.1% Tween in TBS) followed by incubation with secondary HRP conjugated antibody (1:5000 dilution) in 2.5% dry nonfat milk, 0.1% Tween in TBS for 1 h at room temperature. The membrane was washed three times, 10 min each, with wash buffer (0.1% Tween in TBS). Membranes are incubated with ECL for 1 min and proteins are detected after exposure to a blue autoradiographic film.

| SMILES | suppression of CDK4/6 expression (CDK4/6 [1]) | suppression of CDK4 expression and inhibition of CDK4 activity (Rb phosphorylation) (CDK4/6 [2]; 0.1-30 μM) | concentrations with significant effects on CDK4 expression and Rb phosphorylation (CDK4/6 [2]) [µM] | inhibition of Rb phosphorylation at high concentrations (CDK4/6 [3]) | efficacy in inhibiting both CDK4/6 expression and CDK4/6 activity (decreased Rb phosphorylation) (CDK4/6 [4]) | efficacy in inhibiting both CDK4/6 expression and CDK4/6 activity (decreased Rb phosphorylation) (CDK4/6 [5]; 1 or 3 μM) | suppression of both CDK4/6 expression and CDK4/6 activity (summary) (CDK4/6 [6]) | efficacy in inhibiting both CDK4/6 expression and CDK4/6 activity (decreased Rb phosphorylation) (CDK4/6 [5]; 0.3 or 1 μM (FIG. 16 A), 1 or 3 μM (FIG. 16 B)) | inhibition of cancer cell proliferation compared with palbociclib (bright field imaging) (A375 melanoma cells [7]) | inhibition of cancer cell proliferation compared with palbociclib (crystal violet staining) (A375 melanoma cells [8]) | expression of V5-tagged CDK4 and CDK6 [9] |
| --- | --- | --- | --- | --- | --- | --- | --- | --- | --- | --- | --- |
| CC(=O)c1c(C)c2cnc(Nc3ccc(N4CCN(C(=O)CCCCCCC(=O)N[C@H](C(=O)N5C[C@H](O)C[C@H]5C(=O)NCc5ccc(-c6scnc6C)cc5)C(C)(C)C)CC4)cn3)nc2n(C2CCCC2)c1=O [XY019-106, (2S,4R)-1-((S)-2-(8-(4-(6-((6-acetyl-8-cyclopentyl-5-methyl-7-oxo-7,8-dihydropyrido[2,3-d]pyrimidin-2-yl)amino)pyridin-3-yl)piperazin-1-yl)-8-oxooctanamido)-3,3-dimethylbutanoyl)-4-hydroxy-N-(4-(4-methylthiazol-5-yl)benzyl)pyrrolidine-2-carboxamide] | especially effective in suppressing CDK4/6 expression even at 1 μM | both suppresses CDK4 expression and inhibit CDK4 activity | ≥ 0.3 | inhibited Rb phosphorylation even when administered at high concentrations | efficacy of CDK4/6 degraders/disruptors, particularly XY019-106 and XY028-003 | efficacy of CDK4/6 degraders, particularly XY028-133, XY028-140, XY019-106 and XY028-003 | especially effective in suppressing both CDK4/6 expression and CDK4/6 activity |  |  |  |  |
| CC(=O)c1c(C)c2cnc(Nc3ccc(N4CCN(C(=O)CCCCCC(=O)N[C@H](C(=O)N5C[C@H](O)C[C@H]5C(=O)NCc5ccc(-c6scnc6C)cc5)C(C)(C)C)CC4)cn3)nc2n(C2CCCC2)c1=O [XY028-133, (2S,4R)-1-((S)-2-(7-(4-(6-((6-acetyl-8-cyclopentyl-5-methyl-7-oxo-7,8-dihydropyrido[2,3-d]pyrimidin-2-yl)amino)pyridin-3-yl)piperazin-1-yl)-7-oxoheptanamido)-3,3-dimethylbutanoyl)-4-hydroxy-N-(4-(4-methylthiazol-5-yl)benzyl)pyrrolidine-2-carboxamide] |  |  |  |  |  | efficacy of CDK4/6 degraders, particularly XY028-133, XY028-140, XY019-106 and XY028-003; also recorded: efficacy of CDK4/6 degraders, particularly XY028-133 and YX044-18 | especially effective in suppressing both CDK4/6 expression and CDK4/6 activity | efficacy of CDK4/6 degraders, particularly XY028-133 | more effective in inhibiting cancer cell proliferation than palbociclib at the same concentration | more effective in inhibiting cancer cell proliferation than palbociclib at 1 and 3 μM |  |
| CN(C)C(=O)c1cc2cnc(Nc3ccc(N4CCNCC4)cn3)nc2n1C1CCCC1 [ribociclib] |  |  |  |  |  |  |  |  |  |  | upregulated the expression of V5-tagged CDK4 and CDK6 |
